In patent US5409950A, “Cyclic ketal derivatives” (Glaxo Group Limited, priority 1991, dated 1995):

biological target: T1, squalene synthase (Rattus norvegicus, UniProt Q02769); test: Inhibition of squalene synthase in rat liver homogenate; format: biochemical; details: [2-14C] farnesylpyrophosphate as substrate, 30 minute assay, read-out: IC50 (concentration of compound giving 50% inhibition of [14C] squalene production)
T1 construct: incubating rat liver homogenate with various concentrations of the test compound; from tissue; host or cells: rat liver homogenate
T1 sequence (Q02769 1-416): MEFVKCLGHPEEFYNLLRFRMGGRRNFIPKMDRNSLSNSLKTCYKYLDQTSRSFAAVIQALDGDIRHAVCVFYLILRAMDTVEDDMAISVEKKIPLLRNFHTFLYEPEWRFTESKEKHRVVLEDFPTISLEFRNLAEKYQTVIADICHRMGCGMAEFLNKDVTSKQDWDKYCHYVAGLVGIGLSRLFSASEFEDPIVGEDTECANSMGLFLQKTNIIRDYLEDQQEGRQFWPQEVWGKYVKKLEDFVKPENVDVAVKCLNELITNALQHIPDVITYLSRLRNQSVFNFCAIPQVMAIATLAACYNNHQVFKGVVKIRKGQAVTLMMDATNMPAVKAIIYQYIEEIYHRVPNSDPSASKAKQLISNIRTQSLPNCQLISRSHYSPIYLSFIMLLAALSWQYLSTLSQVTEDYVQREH
Experimental: Acta, Volume 877, 50-60 (1986) and modified to include measurement of cholesterol by high performance liquid chromatography (h.p.l.c.).
[^14 C] Squalene was separated from unreacted substrate on thin layer chromatography plates and determined by liquid scintillation counting. Inhibition of squalene synthase was quantified by incubating rat liver homogenate with various concentrations of the test compound in the presence of [2-^14 C] farnesylpyrophosphate. The concentration of compound giving 50% inhibition of [^14 C] squalene production in a 30 minute assay was taken as the IC50 value.

| SMILES | IC50 |
| --- | --- |
| C=C(CC[C@]12O[C@H](C(=O)O)[C@@](O)(C(=O)O)[C@](C(=O)O)(O1)[C@H](OC(=O)CC(O)CCC(C)CC)[C@H]2O)[C@@H](OC(C)=O)[C@H](C)Cc1ccccc1 (some centres unmarked) [Compound L] | < 100 nM |
| C=C(CC[C@]12O[C@H](C(=O)O)[C@@](O)(C(=O)O)[C@](C(=O)O)(O1)[C@H](OC(=O)CCC(C)CC(C)CC)[C@H]2O)[C@@H](OC(C)=O)[C@H](C)Cc1ccccc1 (some centres unmarked) [Compound U] | < 100 nM |
| C=C(CC[C@]12O[C@H](C(=O)O)[C@@](O)(C(=O)O)[C@](C(=O)O)(O1)[C@H](OC(=O)/C=C/C(C)=C/C(C)CC)[C@H]2O)[C@@H](OC(C)=O)[C@H](C)Cc1ccccc1 (some centres unmarked) [Compound H] | < 100 nM |
| C=C(CC[C@]12O[C@H](C(=O)O)[C@@](O)(C(=O)O)[C@](C(=O)O)(O1)[C@H](OC(=O)/C=C/[C@@H](C)C[C@@H](C)CC)[C@H]2O)C(O)C(CO)Cc1ccccc1 (some centres unmarked) [Compound N] | < 100 nM |
| CC[C@H](C)C[C@H](C)/C=C/C(=O)O[C@@H]1[C@@H](O)[C@@]2(CC/C(=C\C(C)Cc3ccccc3)CNC(C)=O)O[C@H](C(=O)O)[C@@](O)(C(=O)O)[C@]1(C(=O)O)O2 (some centres unmarked) [Compound T] | < 100 nM |
| C=C(CC[C@]12O[C@H](C(=O)O)[C@@](O)(C(=O)O)[C@](C(=O)O)(O1)[C@H](OC(=O)CC(O)C(C)CC(C)CC)[C@H]2O)[C@@H](OC(C)=O)[C@H](C)Cc1ccccc1 (some centres unmarked) [Compound I] | < 100 nM |
| C=C(CC[C@]12O[C@H](C(=O)OC)[C@@](O)(C(=O)O)[C@](C(=O)O)(O1)[C@H](OC(=O)/C=C/[C@@H](C)C[C@@H](C)CC)[C@H]2O)[C@@H](O)[C@H](C)Cc1ccccc1 [Compound E, [1S-[1α(4R*,5S*),3α,4β,5α,6α(2E,4R*,6R*),7β]]1-(4-hydroxy-5-methyl-3-methylene-6-phenylhexyl)-4,6,7-trihydroxy-2,8-dioxabicyclo[3.2.1]octane-3,4,5-tricarboxylic acid, 6-(4,6-dimethyl-2-octenoate), 3-methyl ester] | < 100 nM |
| C=C(CC[C@]12O[C@H](C(=O)O)[C@@](O)(C(=O)O)[C@](C(=O)O)(O1)[C@H](OC(=O)/C=C/[C@@H](C)C[C@@H](C)CC)[C@H]2O)[C@@H](O)[C@H](C)Cc1ccccc1 [Compound B, [1S-[1α(4R*,5S*),3α,4β,5α,6α(2E,4R*,6R*),7 β9]1-(4-hydroxy-5-methyl-3-methylene-6-phenylhexyl)-4,6,7-trihydroxy-2,8-dioxabicyclo[3.2.1]octane-3,4,5-tricarboxylic acid, 6-(4,6-dimethyl-2-octenoate)] | < 100 nM |
| C=C(CC[C@]12O[C@H](C(=O)O)[C@@](O)(C(=O)O)[C@](C(=O)O)(O1)[C@H](OC(=O)/C=C/[C@@H](C)C[C@@H](C)CC)[C@H]2O)C(NC(C)=O)C(C)Cc1ccccc1 (some centres unmarked) [Compound B1] | < 100 nM |

Continued, values first:

| IC50 | SMILES |
| --- | --- |
| < 100 nM | C=C(CC[C@]12O[C@H](C(=O)O)[C@@](O)(C(=O)O)[C@](C(=O)O)(O1)[C@H](OC(=O)CC(O)CCC(C)CC)[C@H]2O)[C@@H](O)[C@H](C)Cc1ccccc1 (some centres unmarked) [Compound W] |
| < 100 nM | CC[C@H](C)C[C@H](C)/C=C/C(=O)O[C@@H]1[C@@H](O)[C@@]2(CC/C(C)=C/C(C)Cc3ccccc3)O[C@H](C(=O)O)[C@@](O)(C(=O)O)[C@]1(C(=O)O)O2 (some centres unmarked) [Compound A1] |
| < 100 nM | C=C(CC[C@]12O[C@H](C(=O)O)[C@@](O)(C(=O)O)[C@](C(=O)O)(O1)[C@H](OC(=O)/C=C/C(C)(O)CC(C)CC)[C@H]2O)[C@@H](O)[C@H](C)Cc1ccccc1 (some centres unmarked) [Compound C1] |
| < 100 nM | C=C(CC[C@]12O[C@H](C(=O)O)[C@@](O)(C(=O)O)[C@](C(=O)O)(O1)[C@H](OC(=O)/C=C/C(C)(O)CC(C)CC)[C@H]2O)[C@@H](OC(C)=O)[C@H](C)Cc1ccccc1 (some centres unmarked) [Compound K] |
| < 100 nM | C=C(CC[C@@]12O[C@H](C(=O)O)[C@@](O)(C(=O)O)[C@@](C(=O)O)(C[C@H]1O)O2)[C@@H](OC(C)=O)[C@H](C)Cc1ccccc1 [Compound V, [1S-[1α(4R*,5S*),3α,4β,5α,7β]]1-(4-acetyloxy-5-methyl-3-methylene-6-phenylhexyl)-4,7-dihydroxy-2,8-dioxabicyclo[3.2.1]octane-3,4,5-tricarboxylic acid] |
| < 100 nM | C=C(CC[C@]12O[C@H](C(=O)O)[C@@](O)(C(=O)O)[C@](C(=O)O)(O1)[C@H](OC(=O)CC(O)C(C)CC(C)CC)[C@H]2O)[C@@H](O)[C@H](C)Cc1ccccc1 (some centres unmarked) [Compound M] |
| < 100 nM | C=C(CC[C@@]12C[C@@H](OC(=O)/C=C/[C@@H](C)C[C@@H](C)CC)[C@@](C(=O)O)(O1)[C@](O)(C(=O)O)[C@@H](C(=O)O)O2)[C@@H](OC(C)=O)[C@H](C)Cc1ccccc1 [Compound O, [1S-[1α(4R*,5S*),3α,4β,5α,6α(2E,4R*,6R*)]]1-4-acetyloxy-5-methyl-3-methylene-6-phenylhexyl)-4,6-dihydroxy-2,8-dioxabicyclo[3.2.1]octane-3,4,5-tricarboxylic acid, 6-(4,6-dimethyl-2-octenoate)] |
| < 100 nM | C=C(CC[C@]12O[C@H](C(=O)O)[C@@](O)(C(=O)O)[C@](C(=O)O)(O1)[C@H](OC(=O)/C=C/C(C)CCCC)[C@H]2O)[C@@H](OC(C)=O)[C@H](C)Cc1ccccc1 (some centres unmarked) [Compound G] |
